For data set [1], the system named is RANKL-differentiated RAW 264.7 cells. Briefly: Hydroxyapatite resorption on Corning Osteo-Assay Surface plates. Format: cell-based, mouse. The following applies: for acid secretion of osteoclasts (in words): murine osteoclasts. Here is the method: RAW 264.7 cells (American Type Culture Collection (ATCC), cat. no. TIB-71) were differentiated in the presence of 100 ng/ml RANKL on synthetic mineralized surfaces of Corning Osteo-Assay Surface 96-well plates (Corning Inc. Life Sciences, Lowell, Mass.; cat. no. 3988XX1). Cells were cultured for 5 days in 200 μl α-MEM (Grand Island Biological Co. (GIBCO)/Invitrogen Corp. cat. no. 12571-063) with 10% fetal bovine serum (FBS; (GIBCO/Invitrogen) cat. no. 10437-028, Lot 1233072). Exposure of cells to RANKL and KM91104 was continuous throughout the experiment. The complete medium was changed on the third day. On day 5, cells were removed using 3% sodium hypochlorite solution. Plates were air dried and then imaged using digital brightfield photomicrography (Leica DM IRE2 with OpenLab software, Leica Microsystems, Richmond Hill, Canada). Image analysis was carried out with NIH ImageJ software (National Institutes of Health, Bethesda, Md.). Concentrations of KM91104 (μM) in medium were as follows: a, control, vehicle only; b, 0.63; c, 1.25; d, 2.5; e, 5.0; f, 10; g, 20; h, 40.
The concentration range of KM91104 tested was from 0.3 to 40 μM, as indicated (see Materials and Methods). C indicates control, vehicle only added. […] Error bars indicate +/−SD (n=3).
Bone resorption (FIGS. 13 and 14) was assayed using the following method. RAW 264.7 cells were differentiated on synthetic mineralized surfaces in 96 well Corning Osteo Assay Surface plates with 100 ng/ml RANK ligand. Wells were simultaneously treated with the lead compound. Cells were cultured for 5 days in […] of α-MEM. The complete medium was changed on the third day. On day 5, cells were removed using 50% bleach solution. Plates were dried and imaged using digital brightfield photomicrograpy. Image analysis was carried out using ImageJ.

Data set [2] relates to RAW 264.7 cells. The data set can be described thus: Total solubilized TRAP assay of RANKL-mediated differentiation. The following applies: 3 days of growth with RANKL, 0.3 to 40 μM tested. Format: cell-based, mouse. The protocol:
The concentration range of compound tested was from 0.3 to 40 μM, as indicated (see Materials and Methods). C indicates control, vehicle only added. TRAP is a marker for osteoclast differentiation and will convert colorless p-nitrophenylphosphate to yellow nitrophenol under acidic conditions. The yellow color is quantified spectrophotometrically and indicates degree of differentiation after 3 days of growth with RANKL.

Data set [3] deals with RAW 264.7 cells. The data set can be described thus: TRAP staining analysis (qualitative and cell counts) of RANKL-mediated differentiation and fusion. Type of data set: cell-based, mouse. The following applies: for effect on osteoclast formation, differentiation and fusion (in words): at 1.25 μM / at a concentration efficacious in inhibiting acid secretion, where stated. The protocol:
The concentration range of compound tested was from 0.6 to 40 μM, as follows (in μM): a, control, vehicle only; b, 0.63; c, 1.25; d, 2.5; e, 5.0; f, 10; g, 20; h, 40. […] The latter observation is consistent with the conclusion of the protein assay of FIG. 7.
Plotted are cell counts for multinucleated cells with greater than 3 nuclei after treatment with compound KM91104. This figure confirms the qualitative conclusion of FIG. 10 that there is a drop off in the number of larger osteoclasts above 1.25 μM concentration.

In data set [4] the test system is undifferentiated RAW 264.7 cells. The data set can be described thus: Protein assay on cell cultures (effect on cellular growth). The following applies: for effect on cell growth, metabolic activity, cytotoxicity (in words): at 1.25 μM / at a concentration efficacious in inhibiting acid secretion; for concentration that did not significantly affect cell growth / total protein: undifferentiated RAW 264.7 cells, 0.3 to 40 μM tested, n=3. Type of data set: cell-based, mouse. Here is the method:
Concentration range of compound tested was from 0.3 to 40 μM, as indicated (n=3, error bars are +/−SD). […] C indicates control, vehicle only added. The test cell line was undifferentiated RAW 264.7 cells.

Data set [5] concerns mouse bone marrow-derived macrophages (BMM). Briefly: TRAP staining of osteoclasts RANKL-differentiated from bone marrow-derived macrophages. Format: cell-based. The following applies: 1.25 μM. The protocol:
Panels show: a, control, vehicle only; b and c are duplicates with 1.25 μM KM91104.

The subject of data set [6] is undifferentiated RAW 264.7 cells. Briefly: MTT assay to determine cytotoxicity. Type of data set: cell-based, mouse. The protocol: The concentration range of compound tested was from 0.3 to 40 μM, as indicated (n=3). Yellow MTT is converted to purple formazan by mitochondrial reductases. Formazan is measured spectrophotometrically to deduce metabolic activity of test cells. Reduced metabolic activity indicates metabolic dysfunction due to cytotoxicity. In this case, significant cytotoxicity is not seen up to 2.5 μM KM91104 concentration. C indicates control, vehicle only added. The test cell line was undifferentiated RAW 264.7 cells.
A general note: Tetrazolium assays rely on reduction of a dye to a coloured formazan, in cell work by metabolically active cells.

Data set [7] concerns the target TRX-NTa3 fusion protein (TRX-G2-NTa3(1-393)), N-terminal domain of mouse V-ATPase subunit a3 fused to thioredoxin (mouse). The data set can be described thus: ELISA, plate coated with TRX-NTa3, GST-NTB2 as analyte; apparent Kd. On the technique in general: An ELISA detects its analyte on a solid surface through an enzyme-linked reagent.
For data set [8] the target is unchanged. Briefly: ELISA, plate coated with TRX-NTa3, GST-NTB2 against GST-B2(GH).
Data set [9] shares this target. Briefly: ELISA saturation curve, plate coated with TRX-NTa3, GST-B2 as analyte; apparent Kd from half-maximal binding.
Data set [10] shares this target. Briefly: ELISA, plate coated with TRX-NTa3, GST-CTB2 as analyte; apparent Kd.
For data set [11] the target is unchanged. Briefly: ELISA saturation curve, plate coated with TRX-NTa3, GST-B1 as analyte; apparent Kd from half-maximal binding.

These results are taken from US20110189306A1, “COMPOUNDS, COMPOSITIONS AND TREATMENTS FOR V-ATPase RELATED DISEASES” (priority 2010, published 2011).

Entries after “also recorded” stand apart in the source; their conditions may differ. Bounds are passed on as bounds.

Regarding `O=C(N/N=C/c1ccccc1O)c1ccc(O)c(O)c1` [KM91104, 3,4-dihydroxy-N′-(2-hydroxybenzylidene)benzohydrazide], in data set [1] (Mus musculus, RAW264.7, 120 h, 5 days, continuous exposure to RANKL and compound, image analysis of resorption areas, n=3, read-out: concentration for approximately half-maximal inhibition of resorption), the IC50 was about 1250 nM. For the same compound, the “effect on resorption (in words)” value in [1] (in vitro, synthetic mineralized surface, listed as lead compound) is listed as “inhibited resorption without affecting osteoclast formation; also recorded: prevents bone resorption in vitro”. The reduction in resorption result in data set [1] (lowest concentration tested (range 0.3 to 40 μM)) is listed as “Highly significant reduction in resorption”. The “acid secretion of osteoclasts (in words)” value in [1] (listed as lead compound) is “inhibits acid secretion”; in data set [1] (listed as the compound), “significantly reduced acid secretion”. The entries for the “concentration up to which differentiation / mature osteoclast formation is not appreciably affected (TRAP)” value in the data set on RAW 264.7 cells [2] and in the data set with RAW 264.7 cells [2] (listed as lead compound) were “up to 20 μM” and under 20 µM, respectively. Further, the “concentration above which osteoclast size / number of larger osteoclasts (>3 nuclei) is reduced (fusion impaired)” value in the data set with RAW 264.7 cells [3] (RANKL-differentiated RAW 264.7, 0.6 to 40 μM tested) is given as “above 1.25 μM”. In addition, in the data set on RAW 264.7 cells [3] (all concentrations, 0.63 to 40 μM), the “TRAP staining of cells” value is given as “essentially all cells stain for TRAP”. In addition, the “effect on osteoclast formation, differentiation and fusion (in words)” value with RAW 264.7 cells [3] was “does not affect osteoclast differentiation or fusion to form large osteoclasts”; in the data set with RAW 264.7 cells [3] (listed as lead compound), “limited effect on their ability to differentiate or undergo fusion”; with RAW 264.7 cells [3] (listed as the compound), “little effect on osteoclast formation and differentiation”. For the same compound, the cell density result in the data set on RAW 264.7 cells [3] (highest concentration (40 μM)) is reported as “reduction of cell density”. Further, the “concentration that does not affect osteoclast fusion” value in the data set on RAW 264.7 cells [3] (summary of FIGS. 10 and 11) was under 5 µM. Moreover, the “effect on cell growth, metabolic activity, cytotoxicity (in words)” value in data set [4] is reported as “does not affect cell growth or cause cytotoxicity”; in data set [4] (listed as lead compound), “no discernable effect on growth or metabolic activity”. For the same compound, the “concentration that did not significantly affect cell growth / total protein” value in [4] was “up to 20 μM”; in data set [4] (listed as lead compound), under 20 µM. Further, the “formation / maturation of large BMM-derived osteoclasts” value in [5] is recorded as “does not significantly affect the formation of large osteoclasts”; in data set [5] (listed as lead compound), “does not affect BMM derived osteoclast maturation”. For the same compound, the “toxicity (in words)” value in data set [6] (murine RAW264.7 cells) is listed as “low toxicity”. Moreover, the “concentration up to which significant cytotoxicity is not seen (MTT)” value in data set [6] (undifferentiated RAW 264.7 cells, 0.3 to 40 μM tested, n=3) is given as “up to 2.5 μM”.
Turning to “GST-NTB2 fusion protein (GST-G2-B2(1-112)), N-terminal domain of mouse V-ATPase subunit B2 fused to glutathione-S-transferase”, the Kd in [7] turned out to be 230 nM. In addition, in [8], the fold reduction of binding against the full-length B2 subunit turned out to be 60 fold.
In the case of “GST-B2(GH) fusion protein (GST-G2-B2(1-511)-G2H6G2), full length mouse V-ATPase subunit B2 fused to glutathione-S-transferase”, in [9], the Kd was 2.4 nM.
Consider “GST-CTB2 fusion protein (GST-G2-B2(148-511)), C-terminal domain of mouse V-ATPase subunit B2 fused to glutathione-S-transferase”, for which the Kd in data set [10] turned out to be 4.1 nM.
In the case of “GST-B1(GH) fusion protein (GST-G2-B1(1-513)-G2H6G2), full length mouse V-ATPase subunit B1 fused to glutathione-S-transferase (from UniProt Q91YH6)”, the Kd in data set [11] was determined as 2.3 nM.
